Results published in patent publication US10806794B2, “Protease inhibitors having enhanced features” (priority 2008, dated 2020).

How the values were obtained:
[1] = Metabolic stability in cryopreserved human hepatocytes; details: human, cryopreserved human hepatocytes, CLint ± SEM, human hepatocytes, 3 uM, incubated up to one hour
In short: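 Test compounds at 0.1 μM or 3 μM incubated with cryopreserved human hepatocytes at 0.5×10^6 viable cells/mL. Sampling up to four hours (0.1 μM) or one or two hours (3 μM), methanol quench, then remaining parent measured by cassette LC-MS/MS.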

[2] = Metabolic stability in Sprague-Dawley rat hepatocytes; format: in vitro ADME; details: for hepatocyte CLint at 0.1 μM: read-out: Clint ± SEM
[3] = Metabolic stability in beagle dog hepatocytes; format: in vitro ADME; details: for hepatocyte CLint at 0.1 μM: read-out: Clint ± SEM
[4] = Microsomal protein binding by equilibrium dialysis; format: in vitro ADME; details: human liver microsomes, read-out: Microsomal Protein Binding Fu ± SD
In short: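 Compound at 3 μM final in buffer with or without human liver microsomes, dialysed to equilibrium at 37 °C. Both sides quantified by LC-MS/MS to derive fraction unbound (Fu).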

[5] = Plasma protein binding by equilibrium dialysis, rat plasma; format: in vitro ADME; details: read-out: Rat Plasma Protein Binding Fu ± SD
Protocol: (§1) In assays to estimate binding of test compounds to plasma proteins, test compound solutions (5 μM) are prepared in buffer and species-specific plasma (final DMSO concentration 0.5%). The plasma-containing solution is added to one side of the membrane of an equilibrium dialysis system, and the plasma-free is added to the other side. Dialysis was allowed to reach equilibrium by incubation for two hours at 37° C. The concentration of compound on both sides of the membrane was measured using LC-MS/MS.

[6] = Plasma protein binding by equilibrium dialysis, dog plasma; format: in vitro ADME; details: read-out: Dog Plasma Protein Binding Fu ± SD
Protocol: as §1

[7] = Plasma protein binding by equilibrium dialysis, monkey plasma; format: in vitro ADME; details: read-out: Monkey Plasma Protein Binding Fu ± SD
Protocol: as §1

[8] = Plasma protein binding by equilibrium dialysis, mouse plasma; format: in vitro ADME; details: read-out: Mouse Plasma Protein Binding Fu ± SD
Protocol: as §1

CYP2C9 = CYP2C9 (Homo sapiens (Human), UniProt P11712); experiment: biochemical
CYP3A4 = CYP3A4 (Homo sapiens (Human), UniProt P08684); experiment: Metabolic stability in CYP3A4-expressing Bactosomes; format: in vitro ADME; details: 5 μM
Protocol: (§2) Compounds were evaluated for their propensity to act as substrates of individual human cytochrome P450 enzymes using a bacterial membrane preparation co-expressing human NADPH-cytochrome P450 reductase with either human CYP3A4 or CYP2D6 (Bactosomes™ Cypex, Ltd., Dundee, UK). In vitro metabolism studies using Bactosomes™ expressing individual human CYP isoforms monitor the extent to which a test compound is metabolized by a single CYP450 enzyme and allow identification of the CYP isoforms that may be responsible for the metabolism of a test compound. Timecourse analyses of test molecules (5 μM) with CYP2D6- or CYP3A4-expressing Bactosomes™ (100 pmol/mL) are performed in buffer (0.1 M phosphate, pH 7.4) in a final reaction volume of 25 μL. […] Reactions are terminated by the addition of methanol (50 μL) containing internal standard at 0, 5, 15, 30, and 45 minutes.

CYP2D6 = CYP2D6 (Homo sapiens (Human), UniProt P10635); experiment: Metabolic stability in CYP2D6-expressing Bactosomes; format: in vitro ADME; details: 5 μM
Protocol: as §2

CEM-SS cells = test system: CEM-SS cells
Protocol: To evaluate whether conjugated protease inhibitors retain the ability to protect against HIV-1 infection, CEM-SS cells infected with the RF strain of HIV-1 were treated with test compounds for six days, and then cell viability was monitored using the tetrazolium dye XTT. […] A value for Therapeutic Index (TI) was calculated as TC50/EC50.

[9] = Metabolic stability in cynomolgus monkey hepatocytes; format: in vitro ADME; details: cynomolgus monkey

Sequence of CYP2C9 (P11712 whole entry): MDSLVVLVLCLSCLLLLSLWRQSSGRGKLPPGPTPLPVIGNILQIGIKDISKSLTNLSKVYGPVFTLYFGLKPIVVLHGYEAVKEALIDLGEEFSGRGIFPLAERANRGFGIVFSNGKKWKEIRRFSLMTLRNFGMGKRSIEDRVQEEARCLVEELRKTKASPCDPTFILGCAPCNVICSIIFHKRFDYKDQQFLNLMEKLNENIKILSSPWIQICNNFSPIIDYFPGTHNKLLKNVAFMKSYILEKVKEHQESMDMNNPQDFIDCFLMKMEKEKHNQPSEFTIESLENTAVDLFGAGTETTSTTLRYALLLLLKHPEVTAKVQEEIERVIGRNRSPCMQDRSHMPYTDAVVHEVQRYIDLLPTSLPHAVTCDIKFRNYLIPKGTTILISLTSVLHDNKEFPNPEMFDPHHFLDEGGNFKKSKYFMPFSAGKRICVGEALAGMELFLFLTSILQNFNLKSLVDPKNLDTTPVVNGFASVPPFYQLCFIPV
Sequence of CYP3A4 (P08684 whole entry, canonical isoform): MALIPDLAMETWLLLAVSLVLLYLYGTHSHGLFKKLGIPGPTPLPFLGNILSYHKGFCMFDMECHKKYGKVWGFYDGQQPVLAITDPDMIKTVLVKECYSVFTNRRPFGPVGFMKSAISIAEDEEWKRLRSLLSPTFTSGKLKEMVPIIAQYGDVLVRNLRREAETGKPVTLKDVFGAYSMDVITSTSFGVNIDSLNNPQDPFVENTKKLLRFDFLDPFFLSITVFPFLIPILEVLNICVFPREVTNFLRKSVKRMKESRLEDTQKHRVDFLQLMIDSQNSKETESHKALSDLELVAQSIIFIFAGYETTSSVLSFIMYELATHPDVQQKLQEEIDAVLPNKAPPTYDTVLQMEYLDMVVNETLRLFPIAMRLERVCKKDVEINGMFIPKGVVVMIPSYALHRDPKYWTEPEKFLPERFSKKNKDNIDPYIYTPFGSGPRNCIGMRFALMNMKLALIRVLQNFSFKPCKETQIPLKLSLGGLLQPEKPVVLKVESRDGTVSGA
Sequence of CYP2D6 (P10635 whole entry): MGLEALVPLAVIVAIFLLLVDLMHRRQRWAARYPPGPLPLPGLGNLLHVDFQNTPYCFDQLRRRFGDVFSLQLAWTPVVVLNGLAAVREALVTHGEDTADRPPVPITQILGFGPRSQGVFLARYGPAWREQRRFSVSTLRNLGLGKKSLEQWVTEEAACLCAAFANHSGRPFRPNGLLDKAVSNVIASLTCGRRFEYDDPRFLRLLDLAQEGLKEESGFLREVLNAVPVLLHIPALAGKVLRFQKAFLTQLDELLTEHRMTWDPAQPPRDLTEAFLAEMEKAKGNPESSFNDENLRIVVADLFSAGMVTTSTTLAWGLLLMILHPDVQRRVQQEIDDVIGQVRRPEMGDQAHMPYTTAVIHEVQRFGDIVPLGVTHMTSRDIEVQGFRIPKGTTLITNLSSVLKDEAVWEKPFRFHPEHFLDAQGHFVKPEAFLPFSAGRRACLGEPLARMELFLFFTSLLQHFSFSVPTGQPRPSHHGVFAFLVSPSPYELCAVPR

**Q.** For `COC(=O)N[C@H](C(=O)N[C@@H](Cc1ccccc1)[C@@H](O)CN(Cc1ccc(-c2ccccn2)cc1)NC(=O)[C@@H](NC(=O)OC)C(C)(C)C)C(C)(C)C` [Atazanavir, reference compound], which hepatocyte CLint at 3 μM [1] is on record?
**A.** 5.15 ± 1.13 µL/min/1e6 cells

**Q.** And the half-life at 0.1 μM [2]?
**A.** 0.228 h

**Q.** And the hepatocyte CLint at 0.1 μM [2]?
**A.** 101 ± 0.00802 µL/min/1e6 cells

**Q.** What about the half-life at 0.1 μM [3] of the same compound?
**A.** 12.6 h

**Q.** What about the hepatocyte CLint at 0.1 μM [3] of the same compound?
**A.** 1.83 ± 0.000561 µL/min/1e6 cells

**Q.** And the fraction unbound at 3 μM [4]?
**A.** 0.846 ± 0.0308

**Q.** And the fraction unbound at 2 h, 5 μM [5]?
**A.** 0.079 ± 0.00684

**Q.** And the fraction unbound at 2 h, 5 μM [6]?
**A.** 0.139 ± 0.0167

**Q.** And the fraction unbound at 2 h, 5 μM [7]?
**A.** 0.201 ± 0.0183

**Q.** What about the fraction unbound at 2 h, 5 μM [8] of the same compound?
**A.** 0.0574 ± 0.00286

**Q.** What about the IC50 (CYP2C9) of the same compound?
**A.** 10.3 µM

**Q.** Which “3A4 t1/2 ± SEM” value (CYP3A4) does the source give for `COCCOCCOCCOCCOCCNc1ccc(S(=O)(=O)N(CC(C)C)CC(O)[C@H](Cc2ccccc2)NC(=O)O[C@H]2CO[C@H]3OCC[C@H]32)cc1` (some centres unmarked) [mPEG5-N-Darunavir] here?
**A.** 0.623 ± 0.0797 h

**Q.** And the “2D6 t1/2 ± SEM” value (CYP2D6)?
**A.** 0.827 ± 0.0438 h

**Q.** What does the source list for `COCCOCCOCCOCCOCCOCCOCCNc1ccc(S(=O)(=O)N(CC(C)C)CC(O)[C@H](Cc2ccccc2)NC(=O)O[C@H]2CO[C@H]3OCC[C@H]32)cc1` (some centres unmarked) [mPEG7-N-Darunavir]?
**A.** 3A4 t1/2 ± SEM (CYP3A4): 0.232 ± 0.032 h; 2D6 t1/2 ± SEM (CYP2D6): 0.485 ± 0.0325 h

**Q.** Which “CEM-SS TC50 ± SD” value (CEM-SS cells) does the source give for `COCCOC(=O)NC(C(=O)NC(Cc1ccccc1)C(O)CN(Cc1ccc(-c2ccccn2)cc1)NC(=O)C(NC(=O)OC)C(C)(C)C)C(C)(C)C` (centres unmarked) [mono-mPEG1-Atazanavir] here?
**A.** 49.1 ± 6.4 µM

**Q.** Which half-life at 0.1 μM [9] does the source give for `COCCOCCOCCOC(=O)NC(C(=O)NC(Cc1ccccc1)C(O)CN(Cc1ccc(-c2ccccn2)cc1)NC(=O)C(NC(=O)OC)C(C)(C)C)C(C)(C)C` (centres unmarked) [mono-mPEG3-Atazanavir, {1-[N′-[2-Hydroxy-3-(2-{2-[2-(2-methoxy-ethoxy)-ethoxy]-ethoxycarbonylamino}-3,3-dimethyl-butyrylamino)-4-phenyl-butyl]-N′-(4-pyridin-2-yl-benzyl)-hydrazinocarbonyl]-2,2-dimethyl-propyl}-carbamic Acid Methyl Ester] here?
**A.** 1.66 h

**Q.** And the hepatocyte CLint at 0.1 μM ([9]; read-out: Clint ± SEM)?
**A.** 13.9 ± 0.904 µL/min/1e6 cells

**Q.** What about the half-life at 0.1 μM [2] of the same compound?
**A.** 1.95 h

**Q.** What about the hepatocyte CLint at 0.1 μM [2] of the same compound?
**A.** 11.9 ± 0.00223 µL/min/1e6 cells

**Q.** And the half-life at 0.1 μM [3]?
**A.** 1.43 h

**Q.** What about the hepatocyte CLint at 0.1 μM [3] of the same compound?
**A.** 16.1 ± 0.000914 µL/min/1e6 cells

**Q.** And the fraction unbound at 3 μM [4]?
**A.** 0.852 ± 0.0495

**Q.** And the fraction unbound at 2 h, 5 μM [5]?
**A.** 0.138 ± 0.0104

**Q.** And the fraction unbound at 2 h, 5 μM [6]?
**A.** 0.252 ± 0.0397

**Q.** And the fraction unbound at 2 h, 5 μM [7]?
**A.** 0.204 ± 0.196

**Q.** What about the fraction unbound at 2 h, 5 μM [8] of the same compound?
**A.** 0.159 ± 0.0161

**Q.** And the IC50 (CYP2C9)?
**A.** 24.6 µM

**Q.** With `COCCOCCOCCOCCOCCOCCOCCOC(=O)NC(C(=O)NC(Cc1ccccc1)C(O)CN(Cc1ccc(-c2ccccn2)cc1)NC(=O)C(NC(=O)OC)C(C)(C)C)C(C)(C)C` (centres unmarked) [mono-mPEG7-Atazanavir] as the compound, how does the “CEM-SS TC50 ± SD” value (CEM-SS cells) read?
**A.** 133.8 ± 24.5 µM
